Counter-ions that a name gives are not always drawn.
Tests used:
BT-549 cells = test: IC20 of E7389 for BT-549 cells; assay type: cell-based; conditions: Homo sapiens
MDA-MB-231 = test: IC20 of E7389 for the cell line tested (MDA-MB-231); assay type: cell-based; conditions: Homo sapiens
Text: Transfection conditions for human breast cancer cell lines MDA-MB-231 (ATCC Catalog No. HTB26™) and BT-549 (ATCC Catalog No. HTB122™) were optimized using transfection reagent DharmaFect 1 from Dharmacon. The MDA-MB-231 and BT-549 cell lines have been reported to be Estrogen Receptor (ER) negative, Progesterone Receptor (PR) negative and HER-2 negative (triple negative). As a non-targeting negative control we used Silencer Negative Control #1 siRNA from Applied Biosystems. The siGENOME TOX (siTOX) Transfection Control (Dharmacon), an RNA duplex designed to induce cell death, was used as a positive control for cell proliferation assays. A reverse transfection procedure in which siRNA was first mixed with transfection reagent and then cells were added to the well, was used in all experiments. Cell viability was compared in cells treated with medium, negative control siRNA and siTOX reagent combined with different amount of DharmaFect 1. […]
The whole human genome siRNA library was purchased from Dharmacon. […] Cell viability was determined at 96 hours after transfection by CellTiter-Glo luminescent assay from Promega. […] Plates were mixed for 2 minutes on a horizontal shaker, incubated for 10 minutes and read on an EnVision® multilabel plate reader from PerkinElmer.

`C=C1C[C@@H]2CC[C@@]34C[C@H]5O[C@H]6C(O3)[C@H]3OC(CC[C@@H]3O[C@H]6[C@H]5O4)CC(=O)C[C@@H]3[C@@H](OC)[C@@H](C[C@H](O)CN)O[C@H]3CC3O[C@@H](CCC1O2)C[C@@H](C)C3=C` [E7389, 11,15:18,21:24,28-Triepoxy-7,9-ethano-12,15-methano-9H,15H-furo[3,2-i]furo[2′,3′:5,6]pyrano[4,3-b][1,4]dioxacyclopentacosin-5(4H)-one, 2-[(2S)-3-amino-2-hydroxypropyl]hexacosahydro-3-methoxy-26-methyl-20,27-bis(methylene)-, (2R,3R,3aS,7R,8aS,9S,10aR,11S,12R,13aR,13bS,15S,18S,21S,24S,26R,28R,29aS)-methanesulfonate (salt)] showed an IC20 (BT-549 cells) of 0.25 nM and an IC20 (MDA-MB-231) of 0.75 nM.

From patent US9637795B2, “Methods and compositions for predicting response to eribulin” (Eisai R&D Management Co., Ltd., priority 2011, dated 2017)
